Results from patent US20160201132A1, “GENE EXPRESSION BIOMARKERS OF LAQUINIMOD RESPONSIVENESS” (Teva Pharmaceutical Industries Ltd., priority 2013, published 2016).

Tested on: PBMC of RRMS patients
Test: Gene expression microarray analysis (HG-U133A-2) of PBMC from RRMS patients treated with LAQ, ancillary study to ALLEGRO
Type: in vivo, human
Details: for Fold-Change (1.0 vs. 0.0): one month of treatment
Description: The goal of this ancillary study was to characterize gene expression changes and corresponding biological mechanisms induced in PBMC of RRMS patients by LAQ treatment. According to ALLEGRO clinical trial inclusion criteria, 25 patients were randomly assigned to receive LAQ (n=13, age 38.8±2.3 years, female/male ratio: 8/5) or placebo (n=12, age 37.2±3.4 years, female/male ratio: 8/4).
Peripheral blood samples were obtained from RRMS patients at baseline before start of LAQ treatment or placebo, after 0, 1, 6 and 24 month of treatment (visit 0, 1, 6 and 7 according to ALLEGRO clinical trial protocol correspondently) for gene microarray analysis.
Briefly, 1) Peripheral blood mononuclear cells (PBMC) were obtained from RRMS patients that participated in ALLEGRO and were treated daily with 0.6 mg LAQ or placebo. PBMC were subjected for gene expression analysis (HU-133A-2-Affymatrix arrays) at baseline and at 1 and 6 months of LAQ treatment; 2) Data was analyzed by Partek Genomics Solution software. Most informative genes (MIGs) were defined as those that differentiated between groups with p<0.01. Gene functional annotation, enrichment and pathway analysis were performed by Ingenuity software. For each time point, genes that changed in placebo group were excluded from further analysis; and 3) Verification of LAQ related mechanism was performed by Western blot.
PBMC were extracted from 15 ml peripheral blood, separated by Ficoll-Hypaque gradient. Total RNA was extracted using both Trizol (Invitrogen, USA) and Phase-Lock-Gel columns (Eppendorf, Germany) including a DNase digestion step. RNA integrity was assessed by RNA Experion automated electrophoresis system (Bio-Rad Laboratories, Hercules, Calif.).
Probe synthesis using 3 μg total RNA, hybridization, detection, and scanning was performed according to the standard Affymetrix, Inc. USA protocols; cDNA was synthesized using the Two-Cycle cDNA Synthesis Kit (Affymetrix, Inc., USA), and in-vitro transcription performed with the GeneChip IVT Labeling Kit (Affymetrix, Inc., USA). The biotin-labeled IVT-RNA was hybridized to HG-U133A-2 arrays containing 18,400 gene transcripts, each corresponding to 14,500 well-annotated human genes, washed in a GeneChip Fluidics Station 450 (Hewlett Packard, USA, GeneArray-™ scanner G2500A) and scanned according to the manufacturer's protocol (Affymetrix, Inc., USA).
Data analysis was performed on Partek Genomics Solution software (www.partek.com; Partek Incorporated, St. Louis, Mo.). Expression values were computed from raw CEL files by applying the Robust Multi-Chip Average (RMA) background correction algorithm. RMA correction included: 1) values background correction; 2) quintile normalization; 3) log 2 transformation; and 4) median polish summarization. The ANOVA, Repeated Measures and correlation analysis implicated in Partek software ware applied to evaluate LAQ effects. Most informative genes MIGs were defined as those that differentiated between experimental groups with p<0.01. All p-values were calculated for False Discovery Rate (FDR) multiple test correction at p=0.05.
Additionally, significance of individual genes was tested by parametric T-test and non parametric Mann-Whitney test using Bootstrapping approach based on repeated permutations of the data with 5% FDR for multiple testing.
Gene functional annotation, enrichment, and pathway analyses to identify the leading biological pathways that operated under LAQ treatment were performed by Ingenuity Pathways Analysis software (www.ingenuity.com).
ANOVA analysis was used to compare PBMC gene expression after 1, 6 or 24 month of LAQ treatment with baseline gene expression.
For each time point inventors performed analysis source of variation in dataset. (FIG. 1). Age, gender and batch effects were considered as confounders regarding LAQ or Placebo related changes. For each time point genes associated with Placebo effect were evaluated and excluded from further analysis. […]

In the case of `CCN(C(=O)c1c(O)c2c(Cl)cccc2n(C)c1=O)c1ccccc1` [LAQ, 5-chloro-N-ethyl-4-hydroxy-1-methyl-2-oxo-N-phenyl-1,2-dihydroquinoline-3-carboxamide], the “Fold-Change (1.0 vs. 0.0)” value (LYVE1 220037_s_at) is reported as −1.139, the “Fold-Change (1.0 vs. 0.0)” value (MARCH6 201736_s_at) is reported as −1.139 and the “Fold-Change (1.0 vs. 0.0)” value (MAX 210734_x_at) is reported as −1.284. For the same molecule, the “Fold-Change (1.0 vs. 0.0)” value (MFAP3L 205442_at) was −1.854, the “Fold-Change (1.0 vs. 0.0)” value (MFAP3L 210493_s_at) was −1.464 and the “Fold-Change (1.0 vs. 0.0)” value (MYL9 201058_s_at) was −1.74. The “Fold-Change (1.0 vs. 0.0)” value (MYST3 202423_at) was −1.08, the “Fold-Change (1.0 vs. 0.0)” value (NAT8B 206964_at) was −1.746 and the “Fold-Change (1.0 vs. 0.0)” value (NENF 218407_x_at) was −1.141. For the same molecule, the “Fold-Change (1.0 vs. 0.0)” value (NRGN 204081_at) was −1.604, the “Fold-Change (1.0 vs. 0.0)” value (PDE5A 206757_at) was −1.213 and the “Fold-Change (1.0 vs. 0.0)” value (PDGFA 205463_s_at) was −1.536. For the same molecule, the “Fold-Change (1.0 vs. 0.0)” value (PGRMC1 201120_s_at) was −1.432, the “Fold-Change (1.0 vs. 0.0)” value (PGRMC1 201121_s_at) was −1.443 and the “Fold-Change (1.0 vs. 0.0)” value (POPDC3 219926_at) was −1.1575. For the same molecule, the “Fold-Change (1.0 vs. 0.0)” value (POU1F1 207846_at) was −1.091, the “Fold-Change (1.0 vs. 0.0)” value (PPM1A 203966_s_at) was −1.182 and the “Fold-Change (1.0 vs. 0.0)” value (PRKG1 207119_at) was −1.185. For the same molecule, the “Fold-Change (1.0 vs. 0.0)” value (PRPF4B 202127_at) was −1.135, the “Fold-Change (1.0 vs. 0.0)” value (PSD3 218613_at) was −1.258 and the “Fold-Change (1.0 vs. 0.0)” value (PTCRA 211837_s_at) was −1.274. The “Fold-Change (1.0 vs. 0.0)” value (PTCRA 215492_x_at) was −1.526, the “Fold-Change (1.0 vs. 0.0)” value (PTGIS 210702_s_at) was −1.095 and the “Fold-Change (1.0 vs. 0.0)” value (RBM25 212031_at) was −1.105. The “Fold-Change (1.0 vs. 0.0)” value (RET 211421_s_at) was −1.221, the “Fold-Change (1.0 vs. 0.0)” value (SDPR 218711_s_at) was −1.662 and the “Fold-Change (1.0 vs. 0.0)” value (SELP 206049_at) was −1.642. The “Fold-Change (1.0 vs. 0.0)” value (SEPT6 214298_x_at) was −1.133, the “Fold-Change (1.0 vs. 0.0)” value (SF3B1 201071_x_at) was −1.0879 and the “Fold-Change (1.0 vs. 0.0)” value (SLC37A1 218928_s_at) was −1.126. The “Fold-Change (1.0 vs. 0.0)” value (SPARC 200665_s_at) was −1.776, the “Fold-Change (1.0 vs. 0.0)” value (SPARC 212667_at) was −1.73 and the “Fold-Change (1.0 vs. 0.0)” value (SRRT 201680_x_at) was −1.118. For the same molecule, the “Fold-Change (1.0 vs. 0.0)” value (TAL1 206283_s_at) was −1.752, the “Fold-Change (1.0 vs. 0.0)” value (TAS2R4 221392_at) was −1.203 and the “Fold-Change (1.0 vs. 0.0)” value (TBXA2R 336_at) was −1.433. For the same molecule, the “Fold-Change (1.0 vs. 0.0)” value (TGFB1 203085_s_at) was −1.24, the “Fold-Change (1.0 vs. 0.0)” value (TMED10 200929_at) was −1.099 and the “Fold-Change (1.0 vs. 0.0)” value (TNFSF4 207426_s_at) was −1.7061. The “Fold-Change (1.0 vs. 0.0)” value (TPM1 210986_s_at) was −1.555, the “Fold-Change (1.0 vs. 0.0)” value (TPM1 210987_x_at) was −1.447 and the “Fold-Change (1.0 vs. 0.0)” value (TPTE 220205_at) was −1.158. For the same molecule, the “Fold-Change (1.0 vs. 0.0)” value (TRIM58 215047_at) was −1.777, the “Fold-Change (1.0 vs. 0.0)” value (TUBB2B 214023_x_at) was −1.159 and the “Fold-Change (1.0 vs. 0.0)” value (VCL 200931_s_at) was −1.406. For the same molecule, the “Fold-Change (1.0 vs. 0.0)” value (WASF3 204042_at) was −1.606, the “Fold-Change (1.0 vs. 0.0)” value (WDR48 222157_s_at) was −1.103 and the “Fold-Change (1.0 vs. 0.0)” value (XK 206698_at) was −1.88. The “Fold-Change (1.0 vs. 0.0)” value (XYLT1 213725_x_at) was 1.314, the “Fold-Change (1.0 vs. 0.0)” value (ZNF415 205514_at) was −1.154 and the “p, differential expression of cellular movement and migration” value (after one month of LAQ treatment) was 3.49*10^−4. For the same molecule, the “genes (#), Caveolar mediated endocytosis” value (after one month of treatment) was 8, the “genes (#), Cellular movement: Adhesion & migration of phagocytes” value (after one month of treatment) was 9 and the “genes (#), Chemotaxis of neutrophils” value (after one month of treatment) was 4. The “genes (#), Clathrin mediated endocytosis” value (after one month of treatment) was 12, the “genes (#), Hematological system: Activation of blood platelets” value (after one month of treatment) was 13 and the “genes (#), Hematological system: Aggregation of blood cells” value (after one month of treatment) was 19. For the same molecule, the “genes (#), Hematological system: Aggregation of blood platelets” value (after one month of treatment) was 18, the “genes (#), Hematological system: Coagulation of blood” value (after one month of treatment) was 14 and the “genes (#), Inflammatory response: Adhesion of phagocytes” value (after one month of treatment) was 9. The “genes (#), Inflammatory response: TGFb signaling” value (after one month of treatment) was 10 and the “genes (#), Transmigration of leukocytes” value (after one month of treatment) was 8.
